Laboratory results taken from US8889702B2, “Derivatives of azaspiranyl-alkylcarbamates of 5-member heterocyclic compounds, preparation thereof and therapeutic use thereof” (Sanofi, priority 2009, dated 2014).

Columns and labels:
[1] = target: T1, enzyme FAAH (Fatty Acid Amide Hydrolase) (Mus musculus, UniProt O08914); assay: radioenzymatic test: hydrolysis of anandamide [ethanolamine 1-3H] with FAAH, mouse brain membrane homogenates; type: biochemical; details: mouse brain membrane homogenate; preincubation 20 minutes at 25° C.; anandamide 10 μM; read-out: IC50 (concentration that inhibits 50% of the control enzymatic activity of FAAH)
T1 construct: The membrane homogenates are prepared extemporaneously by homogenizing the tissues; from tissue; host or cells: mouse brain (minus the cerebellum), membrane homogenate
T1 sequence (O08914 1-579): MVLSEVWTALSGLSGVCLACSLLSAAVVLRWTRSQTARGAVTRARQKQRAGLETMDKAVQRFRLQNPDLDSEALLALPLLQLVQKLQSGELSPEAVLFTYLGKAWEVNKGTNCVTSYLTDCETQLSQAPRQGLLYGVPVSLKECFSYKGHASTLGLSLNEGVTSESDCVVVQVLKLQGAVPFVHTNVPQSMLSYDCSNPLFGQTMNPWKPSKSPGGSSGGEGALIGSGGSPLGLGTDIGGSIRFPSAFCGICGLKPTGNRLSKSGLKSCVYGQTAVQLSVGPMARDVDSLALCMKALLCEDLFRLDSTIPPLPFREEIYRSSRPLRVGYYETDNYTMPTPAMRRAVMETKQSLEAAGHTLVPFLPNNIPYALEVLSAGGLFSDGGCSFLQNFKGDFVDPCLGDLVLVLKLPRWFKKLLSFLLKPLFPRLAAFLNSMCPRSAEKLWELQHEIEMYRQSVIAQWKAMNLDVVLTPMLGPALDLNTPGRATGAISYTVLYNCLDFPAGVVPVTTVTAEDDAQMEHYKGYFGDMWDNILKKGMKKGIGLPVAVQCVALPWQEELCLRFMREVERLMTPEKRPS
Method: The compounds of the invention underwent pharmacological tests to determine their inhibitory effect on the enzyme FAAH (Fatty Acid Amide Hydrolase).
Thus, mouse brains (minus the cerebellum) are removed and stored at −80° C. The membrane homogenates are prepared extemporaneously by homogenizing the tissues using a Precellys® machine in reaction buffer (10 mM Tris-HCl, pH=8, 150 mM NaCl and 1 mM ethylenediaminetetraacetic acid (EDTA)). The enzymatic reaction is performed in 96-well Multiscreen filtration plates in a final volume of 70 μL. Reaction buffer supplemented with fatty acid-free bovine serum albumin (BSA, 1 mg/ml) is used for the enzymatic reaction and the dilution of the compounds and of the anandamide [ethanolamine 1-^3H]. The reaction buffer containing BSA (43 μL/well), the diluted test compounds at different concentrations (7 μL/well containing 1% DMSO) and the membrane preparation (10 μL/well, i.e. 200 μg of tissue per test) are successively added to the wells. After preincubation for 20 minutes of the compounds with the enzyme at 25° C., the reaction is started by adding anandamide [ethanolamine 1-^3H]. (Specific activity of 15-20 Ci/mmol) diluted with cold anandamide (10 μL/well, final concentration of 10 μM, 0.01 μCi per test). After incubation for 20 minutes at 25° C., the enzymatic reaction is stopped by adding a […] of active charcoal prepared in 1.5M NaCl buffer and 0.5 M HCl (50 μL/well). The mixture is stirred for 10 minutes and the aqueous phase containing the ethanolamine [1-^3H] is then recovered by filtration under vacuum and counted by liquid scintillation.

male OF1 mice = assay: test of analgesia: abdominal stretching induced with PBQ (phenylbenzoquinone); type: in vivo, mouse; details: 30 mg/kg p.o. at 120 minutes
Method: The in vivo activity of the compounds of the invention was evaluated in a test of analgesia.
Thus, the intraperitoneal (i.p.) administration of PBQ (phenylbenzoquinone, 2 mg/kg in 0.9% sodium chloride solution containing 5% ethanol) to male OF1 mice weighing 25 to 30 g causes abdominal stretching, on average 30 torsions or contractions within a period of 5 to 15 minutes after injection. The test compounds are administered orally (p.o.) or intraperitoneally (i.p.) suspended in Tween 80 at 0.5%, 60 minutes or 120 minutes before the administration of PBQ. Under these conditions, the compounds of the invention that are the most powerful reduce by 35% to 80% the number of stretches induced with PBQ, over a dose range of between 1 and 30 mg/kg.
For example, compound 5 of Table 1 reduces by 50% the number of stretches induced with PBQ, at a dose of 30 mg/kg p.o. at 120 minutes.

Row | SMILES | melting point | IC50 [1] | reduction of the number of stretches induced with PBQ (male OF1 mice)
1 | CNC(=O)c1cc(COC(=O)NC2CC3(CCN(c4ccc(-c5ccc(F)cc5)cn4)C3)C2)on1 (single isomer, unassigned) [Compound 18, 3-(Methylcarbamoyl)isoxazol-5-ylmethyl{6-[5-(4-fluorophenyl)pyridin-2-yl]-6-azaspiro[3.4]oct-2-yl}carbamate] | 194 to 196 °C |  | 
2 | CNC(=O)c1cc(COC(=O)NC2CC3(CCN(c4ccc(-c5ccc(F)cc5)cn4)C3)C2)on1 (single isomer, unassigned) [Compound 17, 3-(Methylcarbamoyl)isoxazol-5-ylmethyl{6-[5-(4-fluorophenyl)pyridin-2-yl]-6-azaspiro[3.4]oct-2-yl}carbamate] | 203 to 205 °C |  | 
3 | NC(=O)c1cc(COC(=O)NC2CC23CCN(c2nccc(C(F)(F)F)n2)CC3)on1 (stereo not drawn) [Compound 40, 3-Carbamoylisoxazol-5-ylmethyl[6-(4-trifluoromethylpyrimidin-2-yl)-6-azaspiro[2.5]oct-1-yl]carbamate] |  | 0.5 nM | 
4 | NC(=O)c1cc(COC(=O)NCC2CC3(CCN(c4ccc5cc(F)ccc5n4)CC3)C2)on1 [Compound 6, 3-Carbamoylisoxazol-5-ylmethyl[7-(6-fluoroquinolin-2-yl)-7-azaspiro[3.5]non-2-yl]methylcarbamate] | 190 to 192 °C | 0.25 nM | 
5 | NC(=O)c1cc(COC(=O)NC2CC3(CCN(c4ccc(-c5ccc(F)cc5)cn4)CC3)C2)on1 [Compound 5, 3-Carbamoylisoxazol-5-ylmethyl{7-[5-(4-fluorophenyl)pyridin-2-yl]-7-azaspiro[3.5]non-2-yl}carbamate] | 216 to 218 °C |  | 50%
6 | NC(=O)c1cc(COC(=O)NC2CC3(CCN(c4ccc(Br)cn4)CC3)C2)on1 [Compound 4, 3-carbamoylisoxazol-5-ylmethyl[7-(5-bromopyridin-2-yl)-7-azaspiro[3.5]non-2-yl]carbamate] |  | 8.2 nM | 
7 | CNC(=O)c1cc(COC(=O)NCC2CC3(CCN(c4ccc(-c5ccc(F)cc5)cn4)C3)C2)on1 (single isomer, unassigned) [Compound 12, 3-(Methylcarbamoyl)isoxazol-5-ylmethyl 6-[5-(4-fluorophenyl)pyridin-2-yl]-6-azaspiro[3.4]oct-2-ylmethylcarbamate] | 171 to 173 °C | 0.85 nM | 
8 | CNC(=O)c1cc(COC(=O)NC2CC3(CCN(c4ccc5cc(Cl)ccc5n4)CC3)C2)on1 [Compound 19, 3-(Methylcarbamoyl)isoxazol-5-ylmethyl[7-(6-chloroquinolin-2-yl)-7-azaspiro[3.5]non-2-yl]carbamate] |  | 1.8 nM | 
9 | NC(=O)c1cc(COC(=O)NC2CC3(CCN(c4cncc(-c5ccc(F)cc5)n4)CC3)C2)on1 [Compound 25, 3-carbamoylisoxazol-5-ylmethyl{7-[6-(4-fluorophenyl)pyrazin-2-yl]-7-azaspiro[3.5]non-2-yl}carbamate] |  | 1.7 nM | 
10 | CNC(=O)c1cc(COC(=O)NC2CC3(CCN(c4ccc(-c5ccc(F)cc5)cn4)CC3)C2)on1 [Compound 8, 3-(Methylcarbamoyl)isoxazol-5-ylmethyl 7-[5-(4-fluorophenyl)pyridin-2-yl]-7-azaspiro[3.5]non-2-ylcarbamate] | 219 to 221 °C | 0.72 nM | 
11 | NC(=O)c1cc(COC(=O)NC2CC3(CCN(c4ccc(-c5ccc(F)cc5)cn4)C3)C2)on1 (mixture of isomers) [Compound 10, 3-Carbamoylisoxazol-5-ylmethyl{6-[5-(4-fluorophenyl)pyridin-2-yl]-6-azaspiro[3.4]oct-2-yl}carbamate] |  | 2.3 nM | 
12 | CNC(=O)c1cc(COC(=O)NCC2CC3(CCN(c4ccc(-c5ccc(F)cc5)cn4)C3)C2)on1 (single isomer, unassigned) [Compound 13, 3-(Methylcarbamoyl)isoxazol-5-ylmethyl 6-[5-(4-fluorophenyl)pyridin-2-yl]-6-azaspiro[3.4]oct-2-ylmethylcarbamate] | 180 to 182 °C |  | 
13 | CC(C)Cc1ccc(N2CCC3(CC2)CC(NC(=O)OCc2cc(C(N)=O)no2)C3)nc1 [Compound 31, 3-Carbamoylisoxazol-5-ylmethyl[7-(5-isobutylpyridin-2-yl)-7-azaspiro[3,5]non-2-yl]carbamate] | 178 to 180 °C | 4.3 nM | 
